From patent US7973047B2, “Beta-Secretase modulators and methods of use” (Amgen Inc., priority 2010, dated 2011)

System: Aβ40 in conditioned medium of cells stably expressing Amyloid Precursor Protein (APP)
Assay: BACE cell-based assay: Aβ40 in conditioned medium by sandwich ELISA
Conditions: cell based assay data, Table 4; unit inferred; read-out: Cell Assay
Summary of the method: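 Aβ40 in conditioned medium was read by time-resolved fluorescence sandwich ELISA (capture pAb40, detection biotinylated 6E10, 4° C incubations). Compounds were applied for 24 h to cells stably expressing APP, at 10 doses from 100 or 10 μM top, 0.1% DMSO. IC50 derived from percent of control.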

Structure (SMILES): CC(=O)N[C@@H](Cc1ccccc1)[C@H](O)CN[C@H]1CC2(CCC2)Oc2c1cc(CC(C)(C)C)nc2N1CCCC1 [compound 755]
- IC50: 6.5 nM

Structure (SMILES): CC(=O)N[C@@H](Cc1cc(F)cc(N(C)C)c1)[C@H](O)CN[C@H]1CC(C)(C)Oc2c1cc(CC(C)(C)C)nc2N(C)C [compound 756]
- IC50: 200 nM

Structure (SMILES): CC(=O)N[C@@H](Cc1cc(F)cc(Cl)c1)[C@H](O)CN[C@H]1CC(C)(C)Oc2c1cc(CC(C)(C)C)nc2N(C)C [compound 757]
- IC50: 68.9 nM

Structure (SMILES): CC(=O)N[C@@H](Cc1ccc(F)c(F)c1)[C@H](O)CN[C@H]1CC(C)(C)Oc2c1cc(CC(C)(C)C)nc2N1CCCC1 [compound 758]
- IC50: 40.1 nM

Structure (SMILES): CC(=O)N[C@@H](Cc1cc(F)cc(N(C)C)c1)[C@H](O)CN[C@H]1CC2(CCC2)Oc2ncc(CC(C)(C)C)cc21 [compound 759]
- IC50: 17.9 nM

Structure (SMILES): CNc1nc(CC(C)(C)C)cc2c1OC(C)(C)C[C@@H]2NC[C@@H](O)[C@H](Cc1ccc(F)c(F)c1)NC(C)=O [compound 760]
- IC50: 11.3 nM

Structure (SMILES): CC(=O)N[C@@H](Cc1ccc(F)cc1)[C@H](O)CN[C@H]1CC(C)(C)Oc2c1cc(CC(C)(C)C)nc2Cl [compound 761]
- IC50: 126 nM

Structure (SMILES): CC(=O)N[C@@H](Cc1ccc(F)cc1)[C@H](O)CN[C@H]1CC(C)(C)Oc2c1cc(CC(C)(C)C)nc2N(C)C [compound 762]
- IC50: 166 nM

Structure (SMILES): CC(=O)N[C@@H](Cc1cc(F)cc(Br)c1)[C@H](O)CN[C@H]1CC2(CCC2)Oc2ncc(CC(C)(C)C)cc21 [compound 763]
- IC50: 6.49 nM

Structure (SMILES): CC(=O)N[C@@H](Cc1cc(F)cc(F)c1)[C@H](O)CN[C@H]1CC2(CC(C)C2)Oc2ncc(CC(C)(C)C)cc21 (stereo partly drawn) [compound 764]
- IC50: 1.55 nM

Structure (SMILES): CC(=O)N[C@@H](Cc1cc(F)cc(F)c1)[C@H](O)CN[C@H]1C[C@]2(C[C@H](C)C2)Oc2ncc(CC(C)(C)C)cc21 [compound 765, N-((1S,2R)-1-((3,5-difluorophenyl)methyl)-3-(((1s,3R,4′S)-6′-(2,2-dimethylpropyl)-3-methyl-3′,4′-dihydrospiro[cyclobutane-1,2′-pyrano[2,3-b]pyridin]-4′-yl)amino)-2-hydroxypropyl)acetamide]
- IC50: 1.14 nM

Structure (SMILES): CC(=O)N[C@@H](Cc1ccc(F)cc1)[C@H](O)CN[C@H]1CC2(CC(C)C2)Oc2ncc(CC(C)(C)C)cc21 (stereo partly drawn) [compound 766, N-((1S,2R)-3-(((4′S)-6′-(2,2-dimethylpropyl)-3-methyl-3′,4′-dihydrospiro[cyclobutane-1,2′-pyrano[2,3-b]pyridin]-4′-yl)amino)-1-((4-fluorophenyl)methyl)-2-hydroxypropyl)acetamide]
- IC50: 15.8 nM

Structure (SMILES): CC(=O)N[C@@H](Cc1ccc(F)cc1)[C@H](O)CN[C@H]1C[C@]2(C[C@H](C)C2)Oc2ncc(CC(C)(C)C)cc21 [compound 767, N-((1S,2R)-3-(((1s,3R,4′S)-6′-(2,2-dimethylpropyl)-3-methyl-3′,4′-dihydrospiro[cyclobutane-1,2′-pyrano[2,3-b]pyridin]-4′-yl)amino)-1-((4-fluorophenyl)methyl)-2-hydroxypropyl)acetamide]
- IC50: 5.7 nM

Structure (SMILES): CC(=O)N[C@@H](Cc1cccc(F)c1F)[C@H](O)CN[C@H]1C[C@]2(C[C@@H](C)C2)Oc2ncc(CC(C)(C)C)cc21 [compound 768, N-((1S,2R)-1-((2,3-difluorophenyl)methyl)-3-(((1r,3S,4′S)-6′-(2,2-dimethylpropyl)-3-methyl-3′,4′-dihydrospiro[cyclobutane-1,2′-pyrano[2,3-b]pyridin]-4′-yl)amino)-2-hydroxypropyl)acetamide]
- IC50: 38.9 nM

Structure (SMILES): CC(=O)N[C@@H](Cc1cccc(F)c1F)[C@H](O)CN[C@H]1C[C@]2(C[C@H](C)C2)Oc2ncc(CC(C)(C)C)cc21 [compound 769, N-((1S,2R)-1-((2,3-difluorophenyl)methyl)-3-(((1s,3R,4′S)-6′-(2,2-dimethylpropyl)-3-methyl-3′,4′-dihydrospiro[cyclobutane-1,2′-pyrano[2,3-b]pyridin]-4′-yl)amino)-2-hydroxypropyl)acetamide]
- IC50: 33.8 nM

Structure (SMILES): CC(=O)N[C@@H](Cc1cccc(F)c1)[C@H](O)CN[C@H]1C[C@]2(C[C@H](C)C2)Oc2ncc(CC(C)(C)C)cc21 [compound 770, N-((1S,2R)-3-(((1s,3R,4′S)-6′-(2,2-dimethylpropyl)-3-methyl-3′,4′-dihydrospiro[cyclobutane-1,2′-pyrano[2,3-b]pyridin]-4′-yl)amino)-1-((3-fluorophenyl)methyl)-2-hydroxypropyl)acetamide]
- IC50: 2.46 nM

Structure (SMILES): CC(=O)N[C@@H](Cc1ccccc1)[C@H](O)CN[C@H]1CC2(CCC2)Oc2ccc(NC3CCCC3)cc21 [compound 771]
- IC50: 166 nM

Structure (SMILES): CC(=O)N[C@@H](Cc1ccccc1)[C@H](O)CN[C@H]1CC2(CCC2)Oc2ccc(NC(C)(C)C)cc21 [compound 772]
- IC50: 981 nM

Structure (SMILES): CC(=O)N[C@@H](Cc1cc(F)cc(F)c1)[C@H](O)CN[C@H]1CC2(CCC2)Oc2c1cc(Cl)cc2-n1ccnc1 [compound 773]
- IC50: 21.9 nM

Structure (SMILES): CC(=O)N[C@@H](Cc1cc(F)cc(F)c1)[C@H](O)CN[C@H]1CC2(CCC2)Oc2ccc(Br)cc21 [compound 774]
- IC50: 88.2 nM

Structure (SMILES): CC(=O)N[C@@H](Cc1cc(F)cc(F)c1)[C@H](O)CN[C@H]1CC2(CCC2)Oc2c1cc(Cl)cc2-n1cnc2ccccc21 [compound 775]
- IC50: 212 nM

Structure (SMILES): CC(=O)N[C@@H](Cc1cc(F)cc(F)c1)[C@H](O)CN[C@H]1CC2(CCC2)Oc2c1cc(Cl)cc2-n1cccn1 [compound 776]
- IC50: 124 nM

Structure (SMILES): CC(=O)N[C@@H](Cc1cc(F)cc(F)c1)[C@H](O)CN[C@H]1CC2(CCC2)Oc2ccc(-n3cccn3)cc21 [compound 777]
- IC50: 41.2 nM

Structure (SMILES): CC(=O)N[C@@H](Cc1ccccc1)[C@H](O)CN[C@H]1CC2(CCC2)Oc2ccc(-c3cccs3)cc21 [compound 778]
- IC50: 83.3 nM

Structure (SMILES): CC(=O)N[C@@H](Cc1ccccc1)[C@H](O)CN[C@H]1CC2(CCC2)Oc2ccc(-c3ccn(CC(C)C)n3)cc21 [compound 779]
- IC50: 190 nM

Structure (SMILES): CC(=O)N[C@@H](Cc1cc(F)cc(F)c1)[C@H](O)CN[C@H]1CC2(CCC2)Oc2ccc(-c3ccn(CC(C)C)n3)cc21 [compound 780]
- IC50: 1650 nM

Structure (SMILES): CC(=O)N[C@@H](Cc1cc(F)cc(F)c1)[C@@H](O)CN[C@H]1CC2(CCC2)Oc2ccc(-n3cccn3)cc21 [compound 781]
- IC50: 1160 nM

Structure (SMILES): CC(=O)N[C@@H](Cc1cc(F)cc(F)c1)[C@H](O)CN[C@H]1CC2(CCC2)Oc2ccc(-n3ccnc3)cc21 [compound 782]
- IC50: 81.6 nM

Structure (SMILES): CC(=O)N[C@@H](Cc1ccccc1)[C@H](O)CN[C@H]1CC2(CCC2)Oc2ccc(-c3ccn(C)n3)cc21 [compound 783]
- IC50: 3240 nM

Structure (SMILES): CC(=O)N[C@@H](Cc1cc(F)cc(F)c1)[C@H](O)CN[C@H]1CC2(CCC2)Oc2ccc(-c3ccn(C)n3)cc21 [compound 784]
- IC50: 1650 nM

Structure (SMILES): CC(=O)N[C@@H](Cc1cc(F)cc(F)c1)[C@H](O)CN[C@H]1CC2(CCC2)Oc2ccc(-c3cccs3)cc21 [compound 785]
- IC50: 2970 nM

Structure (SMILES): CC(=O)N[C@@H](Cc1cc(F)cc(F)c1)[C@@H](O)CN[C@H]1CC2(CCC2)Oc2c1cc(Cl)cc2-n1cccn1 [compound 786]
- IC50: 1370 nM

Structure (SMILES): CC(=O)N[C@@H](Cc1cc(F)cc(F)c1)[C@H](O)CN[C@H]1CC2(CCC2)Oc2cc(Br)ccc21 [compound 787]
- IC50: ≥ 10000 nM

Structure (SMILES): CC(=O)Nc1ccc2c(c1)[C@@H](NC[C@@H](O)[C@H](Cc1cc(F)cc(F)c1)NC(C)=O)CC1(CCC1)O2 [compound 789]
- IC50: 17.7 nM

Structure (SMILES): CC(=O)N[C@@H](Cc1cc(F)cc(F)c1)[C@H](O)CN[C@H]1CC2(CCC2)Oc2ccc(N[C@@H]3CCOC3)cc21 [compound 790]
- IC50: 58.5 nM

Structure (SMILES): CC(=O)N[C@@H](Cc1cc(F)cc(F)c1)[C@H](O)CN[C@H]1CC2(CCC2)Oc2ccc(-n3nccn3)cc21 [compound 791]
- IC50: 803 nM

Structure (SMILES): CC(=O)N[C@@H](Cc1cc(F)cc(F)c1)[C@H](O)CN[C@H]1CC2(CCC2)Oc2ccc(-n3cncn3)cc21 [compound 792]
- IC50: 137 nM

Structure (SMILES): CC(=O)N[C@@H](Cc1cc(F)cc(F)c1)[C@H](O)CN[C@H]1CC2(CCC2)Oc2ccc(N3CCCC3=O)cc21 [compound 793]
- IC50: 359 nM

Structure (SMILES): CC(=O)N[C@@H](Cc1ccccc1)[C@H](O)CN[C@H]1CC(C)(C)Oc2cnc(CC(C)(C)C)cc21 [compound 794]
- IC50: 34.8 nM

Structure (SMILES): CC(=O)N[C@@H](Cc1cc(F)cc(F)c1)[C@H](O)CN[C@H]1CC2(CCC2)Oc2ccc(N3CCC3=O)cc21 [compound 795]
- IC50: 255 nM

Structure (SMILES): CC(=O)N[C@@H](Cc1cc(F)cc(Cl)c1)[C@H](O)CN[C@H]1CC(C)(C)Oc2cnc(CC(C)(C)C)cc21 [compound 796]
- IC50: 8.39 nM

Structure (SMILES): CCC(=O)N[C@@H](Cc1cc(F)cc(Cl)c1)[C@H](O)CN[C@H]1CC(C)(C)Oc2cnc(CC(C)(C)C)cc21 [compound 797]
- IC50: 11.3 nM

Structure (SMILES): CC(=O)N[C@@H](Cc1cccc(F)c1)[C@H](O)CN[C@H]1CC(C)(C)Oc2cnc(CC(C)(C)C)cc21 [compound 798]
- IC50: 6.72 nM

Structure (SMILES): CC(=O)N[C@@H](Cc1ccc(F)cc1)[C@H](O)CN[C@H]1CC(C)(C)Oc2cnc(CC(C)(C)C)cc21 [compound 799]
- IC50: 45.4 nM

Structure (SMILES): CC(=O)N[C@@H](Cc1cc(F)cc(F)c1)[C@H](O)CN[C@H]1CC(C)(C)Oc2cnc(CC(C)(C)C)cc21 [compound 800]
- IC50: 3.56 nM

Structure (SMILES): CC(=O)N[C@@H](Cc1cc(F)cc(F)c1)[C@H](O)CN[C@H]1CC2(CCC2)Oc2cc(F)c(Br)cc21 [compound 801]
- IC50: 571 nM

Structure (SMILES): CC(=O)N[C@@H](Cc1cc(F)cc(F)c1)[C@H](O)CN[C@H]1CC(C)(C)Oc2cc(F)c(Br)cc21 [compound 802]
- IC50: 525 nM

Structure (SMILES): CC(=O)N[C@@H](Cc1cc(F)cc(F)c1)[C@H](O)CN[C@H]1CC2(CCC2)Oc2cc(F)c(N[C@@H]3CCOC3)cc21 [compound 803]
- IC50: 116 nM

Structure (SMILES): CC(=O)N[C@@H](Cc1cc(F)cc(F)c1)[C@H](O)CN[C@H]1CC2(CCC2)Oc2cc(F)ccc21 [compound 804]
- IC50: 2950 nM

Structure (SMILES): CC(=O)N[C@@H](Cc1cc(F)cc(NC2CCOCC2)c1)[C@H](O)CN[C@H]1CC2(CCC2)Oc2ncc(CC(C)(C)C)cc21 [compound 805]
- IC50: 5.14 nM

Structure (SMILES): CC(=O)N[C@@H](Cc1cc(F)cc(F)c1)[C@H](O)CN[C@H]1CC2(CCC2)Oc2cc(F)c(NC3CCOCC3)cc21 [compound 806]
- IC50: 452 nM
